This passage reports mortality results from US9326516B2, “Molecules having certain pesticidal utilities, and intermediates, compositions, and processes related thereto” (Dow AgroSciences LLC, priority 2014, dated 2016).

What all share (format): in vivo
The subject of assay [1] is Green Peach Aphid (Myzus persicae, MYZUPE). Kind of assay: Bioassay on Green Peach Aphid (GPA), foliar spray on cabbage seedlings. To be noted: 72 h, 200 ppm spray on infested cabbage seedlings, graded after three days, Abbott corrected % control, read-out: GPA % Control (or Mortality) rating. How it is done:
Certain molecules disclosed in this document were tested against GPA using procedures described in the following example. In the reporting of the results, the “GPA Rating Table” was used (See Table Section).
Cabbage seedlings grown in 3-inch pots, with 2-3 small (3-5 cm) true leaves, were used as test substrate. The seedlings were infested with 20-50 GPA (wingless adult and nymph stages) one day prior to chemical application. Four pots with individual seedlings were used for each treatment. Test compounds (2 mg) were dissolved in 2 mL of acetone/methanol (1:1) solvent, forming stock solutions of 1000 ppm test compound. The stock solutions were diluted 5× with 0.025% Tween 20 in water to obtain the solution at 200 ppm test compound. A hand-held aspirator-type sprayer was used for spraying a solution to both sides of […] leaves until runoff. Reference plants (solvent check) were sprayed with the diluent only containing 20% by volume of acetone/methanol (1:1) solvent. Treated plants were held in a holding room for three days at approximately 25° C. and ambient relative humidity (RH) prior to grading. Evaluation was conducted by counting the number of live aphids per plant under a microscope. Percent Control was measured by using Abbott's correction formula (W. S. Abbott, “A Method of Computing the Effectiveness of an Insecticide” J. Econ. Entomol. 18 (1925), pp. 265-267) as follows. Corrected % Control=100*(X−Y)/X where X=No. of live aphids on solvent check plants and Y=No. of live aphids on treated plants

The subject of assay [2] is Cabbage Looper (Trichoplusia ni, TRIPNI). The assay is described as follows: Bioassay on Cabbage Looper (CL), 128-well diet tray assay. To be noted: 168 h, 50 μg/cm^2 on artificial diet, second instar CL larvae, 25° C., five to seven days, average of eight wells, read-out: CL % Control (or Mortality) rating. The procedure: (§1) Certain molecules disclosed in this document were tested against BAW and CEW using procedures described in the following examples. In the reporting of the results, the “BAW & CL Rating Table” was used (See Table Section).
Bioassays on CL were conducted using a 128-well diet tray assay, one to five second instar CL larvae were placed in each well (3 mL) of the diet tray that had been previously filled with 1 mL of artificial diet to which 50 μg/cm^2 of the test compound (dissolved in 50 μL of 90:10 acetone-water mixture) had been applied (to each of eight wells) and then allowed to dry. Trays were covered with a clear self-adhesive cover and held at 25° C., 14:10 light-dark for five to seven days. Percent mortality was recorded for the larvae in each well; activity in the eight wells was then averaged. The results are indicated in the table entitled “Table ABC: Biological Results” (See Table Section).

Assay [3] has as its system Beet Armyworm (Spodoptera exigua, LAPHEG). Kind of assay: Bioassay on Beet Armyworm (BAW), 128-well diet tray assay. The conditions noted are these: 168 h, 50 μg/cm^2 on artificial diet, second instar BAW larvae, 25° C., five to seven days, average of eight wells, read-out: BAW % Control (or Mortality) rating. The procedure: as §1
Bioassays on BAW were conducted using a 128-well diet tray assay. one to five second instar BAW larvae were placed in each well (3 mL) of the diet tray that had been previously filled with 1 mL of artificial diet to which 50 μg/cm^2 of the test compound (dissolved in 50 μL of 90:10 acetone-water mixture) had been applied (to each of eight wells) and then allowed to dry. Trays were covered with a clear self-adhesive cover and held at 25° C., 14:10 light-dark for five to seven days. Percent mortality was recorded for the larvae in each well; activity in the eight wells was then averaged. The results are indicated in the table entitled “Table ABC: Biological Results” (See Table Section).

One may read the mortality as the share of the test organisms that died. Regarding `FC(F)(F)Oc1ccc(-n2cnc(-c3ccc(NC4=NC(c5ccc(Cl)cc5)CO4)cc3)n2)cc1` (stereo not drawn) [Compound F3, 4-(4-Chlorophenyl)-N-(4-(1-(4-(trifluoromethoxy)phenyl)-1H-1,2,4-triazol-3-yl)phenyl)-4,5-dihydrooxazol-2-amine], in assay [1], the mortality at 200 ppm was 0 to 80%. The mortality at 50 µg/cm2 in assay [2] and in assay [3] was 50 to 100% throughout.
`Cc1ccc(C2COC(Nc3ccc(-c4ncn(-c5ccc(OC(F)(F)F)cc5)n4)cc3)=N2)cc1` (stereo not drawn) [Compound F4, 4-(p-Tolyl)-N-(4-(1-(4-(trifluoromethoxy)phenyl)-1H-1,2,4-triazol-3-yl)phenyl)-4,5-dihydrooxazol-2-amine]: the mortality at 200 ppm in assay [1] amounted to 0%. Moreover, the mortality at 50 µg/cm2 in assay [2] is 50 to 100%; in assay [3] it was 0%.
With `COc1ccc(C2COC(Nc3ccc(-c4ncn(-c5ccc(OC(F)(F)F)cc5)n4)cc3)=N2)cc1` (stereo not drawn) [Compound F6, 4-(4-Methoxyphenyl)-N-(4-(1-(4-(trifluoromethoxy)phenyl)-1H-1,2,4-triazol-3-yl)phenyl)-4,5-dihydrooxazol-2-amine], in assay [1], the mortality at 200 ppm was 0%. For the same compound, the mortality at 50 µg/cm2 in assay [2] and in assay [3] was 50 to 100% each time.
With `FC(F)(F)Oc1ccc(-n2cnc(-c3ccc(NC4=NC(c5ccccc5)CO4)cc3)n2)cc1` (stereo not drawn) [Compound F7, 4-Phenyl-N-(4-(1-(4-(trifluoromethoxy)phenyl)-1H-1,2,4-triazol-3-yl)phenyl)-4,5-dihydrooxazol-2-amine], in assay [1], the mortality at 200 ppm lay within 80 to 100%. For the same compound, the mortality at 50 µg/cm2 in assay [2] and in assay [3] was 50 to 100% in each case.
Consider `Fc1ccc(C2COC(Nc3ccc(-c4ncn(-c5ccc(OC(F)(F)F)cc5)n4)cc3)=N2)cc1` (stereo not drawn) [Compound F8, 4-(4-Fluorophenyl)-N-(4-(1-(4-(trifluoromethoxy)phenyl)-1H-1,2,4-triazol-3-yl)phenyl)-4,5-dihydrooxazol-2-amine], for which, in assay [1], the mortality at 200 ppm lay within 0 to 80%. Also, the mortality at 50 µg/cm2 in assay [2] and in assay [3] was 50 to 100% in each case.
Consider `FC(F)(F)Oc1ccc(-n2cnc(-c3ccc(NC4=NC(c5ccc(Br)cc5)CO4)cc3)n2)cc1` (stereo not drawn) [Compound F9, 4-(4-Bromophenyl)-N-(4-(1-(4-(trifluoromethoxy)phenyl)-1H-1,2,4-triazol-3-yl)phenyl)-4,5-dihydrooxazol-2-amine], for which, in assay [1], the mortality at 200 ppm is 80 to 100%. The mortality at 50 µg/cm2 in assay [2] and in assay [3] was 50 to 100% throughout.
As for `FC(F)(F)Oc1ccc(-n2cnc(-c3ccc(NC4=NC(c5cccc(Cl)c5)CO4)cc3)n2)cc1` (stereo not drawn) [Compound F10, 4-(3-Chlorophenyl)-N-(4-(1-(4-(trifluoromethoxy)phenyl)-1H-1,2,4-triazol-3-yl)phenyl)-4,5-dihydrooxazol-2-amine], the mortality at 200 ppm in assay [1] was determined as 0%. For the same compound, the mortality at 50 µg/cm2 in assay [2] is 50 to 100%; in assay [3], 0%.
With `COc1ccc(C2COC(Nc3ccc(-c4ncn(-c5ccc(C(F)(F)F)cc5)n4)cc3)=N2)cc1` (stereo not drawn) [Compound F12, 4-(4-Methoxyphenyl)-N-(4-(1-(4-(trifluoromethyl)phenyl)-1H-1,2,4-triazol-3-yl)phenyl)-4,5-dihydrooxazol-2-amine], in assay [1], the mortality at 200 ppm turned out to be 0%. The mortality at 50 µg/cm2 in assay [2] and in assay [3] was 0% each time.
`Cc1ccc(C2COC(Nc3ccc(-c4ncn(-c5ccc(C(F)(F)F)cc5)n4)cc3)=N2)cc1` (stereo not drawn) [Compound F13, 4-(p-Tolyl)-N-(4-(1-(4-(trifluoromethyl)phenyl)-1H-1,2,4-triazol-3-yl)phenyl)-4,5-dihydrooxazol-2-amine]: the mortality at 200 ppm in assay [1] worked out at 0%. For the same compound, the mortality at 50 µg/cm2 in assay [2] and in assay [3] was 0% throughout.
As to `FC(F)(F)c1ccc(-n2cnc(-c3ccc(NC4=NC(c5ccccc5)CO4)cc3)n2)cc1` (stereo not drawn) [Compound F14, 4-Phenyl-N-(4-(1-(4-(trifluoromethyl)phenyl)-1H-1,2,4-triazol-3-yl)phenyl)-4,5-dihydrooxazol-2-amine], the mortality at 200 ppm in assay [1] is 0%. Further, the mortality at 50 µg/cm2 in assay [2] and in assay [3] was 0% in each case.
For the compound `Fc1ccc(C2COC(Nc3ccc(-c4ncn(-c5ccc(C(F)(F)F)cc5)n4)cc3)=N2)cc1` (stereo not drawn) [Compound F15, 4-(4-Fluorophenyl)-N-(4-(1-(4-(trifluoromethyl)phenyl)-1H-1,2,4-triazol-3-yl)phenyl)-4,5-dihydrooxazol-2-amine], the mortality at 200 ppm in assay [1] is 0%. Further, the mortality at 50 µg/cm2 in assay [2] and in assay [3] was 50 to 100% throughout.
On to `FC(F)(F)c1ccc(-n2cnc(-c3ccc(NC4=NC(c5ccc(Cl)cc5)CO4)cc3)n2)cc1` (stereo not drawn) [Compound F16, 4-(4-Chlorophenyl)-N-(4-(1-(4-(trifluoromethyl)phenyl)-1H-1,2,4-triazol-3-yl)phenyl)-4,5-dihydrooxazol-2-amine], for which the mortality at 200 ppm in assay [1] lay in the range of 80 to 100%. In addition, the mortality at 50 µg/cm2 in assay [2] and in assay [3] was 50 to 100% each time.
`FC(F)(F)Oc1ccc(C2COC(Nc3ccc(-c4ncn(-c5ccc(C(F)(F)F)cc5)n4)cc3)=N2)cc1` (stereo not drawn) [Compound F17, 4-(4-(Trifluoromethoxy)phenyl)-N-(4-(1-(4-(trifluoromethyl)phenyl)-1H-1,2,4-triazol-3-yl)phenyl)-4,5-dihydrooxazol-2-amine]: the mortality at 200 ppm in assay [1] was 0%. The mortality at 50 µg/cm2 in assay [2] and in assay [3] was 50 to 100% throughout.
Consider `FC(F)(F)c1ccc(-n2cnc(-c3ccc(NC4=NC(c5cccc(Cl)c5)CO4)cc3)n2)cc1` (stereo not drawn) [Compound F18, 4-(3-Chlorophenyl)-N-(4-(1-(4-(trifluoromethyl)phenyl)-1H-1,2,4-triazol-3-yl)phenyl)-4,5-dihydrooxazol-2-amine], for which, in assay [1], the mortality at 200 ppm amounted to 0%. Also, the mortality at 50 µg/cm2 in assay [2] and in assay [3] was 50 to 100% in each case.
Regarding `FC(F)(F)c1ccc(-n2cnc(-c3ccc(NC4=NC(c5ccccc5Cl)CO4)cc3)n2)cc1` (stereo not drawn) [Compound F19, 4-(2-Chlorophenyl)-N-(4-(1-(4-(trifluoromethyl)phenyl)-1H-1,2,4-triazol-3-yl)phenyl)-4,5-dihydrooxazol-2-amine], the mortality at 200 ppm in assay [1] was determined as 0%. In addition, the mortality at 50 µg/cm2 in assay [2] is 50 to 100%; in assay [3], 0%.
For `COc1ccc(C2CSC(Nc3ccc(-c4ncn(-c5ccc(OC(F)(F)F)cc5)n4)cc3)=N2)cc1` (stereo not drawn) [Compound F21, 4-(4-Methoxyphenyl)-N-(4-(1-(4-(trifluoromethoxy)phenyl)-1H-1,2,4-triazol-3-yl)phenyl)-4,5-dihydrothiazol-2-amine], the mortality at 200 ppm in assay [1] is 0%. Moreover, the figures for the mortality at 50 µg/cm2 in assay [2] and in assay [3] were 0% and 50 to 100%, respectively.
`Cc1ccc(C2CSC(Nc3ccc(-c4ncn(-c5ccc(OC(F)(F)F)cc5)n4)cc3)=N2)cc1` (stereo not drawn) [Compound F22, 4-(p-Tolyl)-N-(4-(1-(4-(trifluoromethoxy)phenyl)-1H-1,2,4-triazol-3-yl)phenyl)-4,5-dihydrothiazol-2-amine]: in assay [1], the mortality at 200 ppm was found to be 0%. In addition, the mortality at 50 µg/cm2 in assay [2] and in assay [3] was 0% each time.
